Among the data in patent US20230143612A1 (Arbutus Biopharma Corporation, priority 2020, published 2023) are IC50 values, retold here.

The structures appear in SMILES notation.

This experiment deals with PD-L1 His protein / PD-1 Fc protein (Homo sapiens, UniProt Q9NZQ7). Nature of the experiment: HTRF Assay (PD-1/PD-L1 interaction). The experiment is classed as binding. The conditions noted are these: PD-L1 His 6 nM, PD-1 Fc 6 nM. In a few lines: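 HTRF: PD-L1 His (6 nM final), compound (3-fold dilutions, 20 μM to 0.001 μM final) and PD-1 Fc (6 nM final) preincubated 15 min at room temperature. Anti-human IgG-XL665 and anti-6HIS Tb cryptate (mixed at 6.7 nM and 0.35 nM) then added for 1 h at room temperature before reading.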
Sequence of PD-L1 His protein / PD-1 Fc protein (Q9NZQ7 19-238 limits assumed): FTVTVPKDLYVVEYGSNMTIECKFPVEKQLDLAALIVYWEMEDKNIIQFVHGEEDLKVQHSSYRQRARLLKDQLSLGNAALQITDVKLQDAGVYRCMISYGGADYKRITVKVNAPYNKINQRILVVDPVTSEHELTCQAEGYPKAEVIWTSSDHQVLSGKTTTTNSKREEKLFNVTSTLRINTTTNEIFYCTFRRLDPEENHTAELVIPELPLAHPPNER
(In TR-FRET formats the signal depends on donor and acceptor labels being close together.)
Usually IC50 stands for the midpoint of a concentration-inhibition curve. Lower therefore signals greater potency in that assay. The molecule `COc1nc(-c2cccc(-c3cccc(-c4ccn5c(=O)cc(CNC[C@@H]6CCC(=O)N6)nc5c4)c3Cl)c2Cl)ccc1CNC[C@@H]1CCC(=O)N1` [Example 156, 8-(2,2′-Dichloro-3′-(6-methoxy-5-(((((S)-5-oxopyrrolidin-2-yl)methyl)amino)methyl)pyridin-2-yl)-[1,1′-biphenyl]-3-yl)-2-(((((S)-5-oxopyrrolidin-2-yl)methyl)amino)methyl)-4H-pyrido[1,2-a]pyrimidin-4-one] gave a half-inhibitory concentration (IC50) of 1.4 nM.
Next, `COc1nc(-c2cccc(-c3cccc(-c4ccn5c(=O)c(CNC[C@@H]6CCC(=O)N6)cnc5c4)c3Cl)c2Cl)ccc1CN1CC(C)(O)C1` [Example 157, (S)-8-(2,2′-Dichloro-3′-(5-((3-hydroxy-3-methylazetidin-1-yl)methyl)-6-methoxypyridin-2-yl)-[1,1′-biphenyl]-3-yl)-3-((((5-oxopyrrolidin-2-yl)methyl)amino)methyl)-4H-pyrido[1,2-a]pyrimidin-4-one]: 1.6 nM; `COc1nc(-c2cccc(-c3cccc(-c4ccn5c(=O)c(CNC[C@@H]6CCC(=O)N6)cnc5c4)c3Cl)c2Cl)ccc1CN[C@H]1C[C@H](O)C1` [Example 158, 8-(2,2′-Dichloro-3′-(5-((((1r,3r)-3-hydroxycyclobutyl)amino)methyl)-6-methoxypyridin-2-yl)-[1,1′-biphenyl]-3-yl)-3-(((((S)-5-oxopyrrolidin-2-yl)methyl)amino)methyl)-4H-pyrido[1,2-a]pyrimidin-4-one]: 2 nM; `COc1nc(-c2cccc(-c3cccc(-c4ccn5c(=O)c(CNC[C@@H]6CCC(=O)N6)cnc5c4)c3Cl)c2Cl)ccc1CN1CC(CO)(CO)C1` [Example 159, (S)-8-(3′-(5-((3,3-Bis(hydroxymethyl)azetidin-1-yl)methyl)-6-methoxypyridin-2-yl)-2,2′-dichloro-[1,1′-biphenyl]-3-yl)-3-((((5-oxopyrrolidin-2-yl)methyl)amino)methyl)-4H-pyrido[1,2-a]pyrimidin-4-one]: 1.3 nM.
Next, `COc1nc(-c2cccc(-c3cccc(-c4ccn5c(=O)c(CNCCCC(=O)O)cnc5c4)c3Cl)c2Cl)ccc1CNC[C@@H]1CCC(=O)N1` [Example 160, (S)-4-(((8-(2,2′-Dichloro-3′-(6-methoxy-5-((((5-oxopyrrolidin-2-yl)methyl)amino)methyl)pyridin-2-yl)-[1,1′-biphenyl]-3-yl)-4-oxo-4H-pyrido[1,2-a]pyrimidin-3-yl)methyl)amino)butanoic acid]: 0.7 nM; `COc1nc(-c2cccc(-c3cccc(-c4ccn5c(=O)c(C6=NCC(O)CN6)cnc5c4)c3Cl)c2Cl)ccc1CNC[C@@H]1CCC(=O)N1` (stereo partly drawn) [Example 161, 8-(2,2′-Dichloro-3′-(6-methoxy-5-(((((S)-5-oxopyrrolidin-2-yl)methyl)amino)methyl)pyridin-2-yl)-[1,1′-biphenyl]-3-yl)-3-(5-hydroxy-1,4,5,6-tetrahydropyrimidin-2-yl)-4H-pyrido[1,2-a]pyrimidin-4-one]: 0.1 nM; `COC(=O)C1CN(Cc2cnc3cc(-c4cccc(-c5cccc(-c6ccc(CNC[C@@H]7CCC(=O)N7)c(OC)n6)c5Cl)c4Cl)ccn3c2=O)C1` [Example 162, (S)-Methyl 1-((8-(2,2′-dichloro-3′-(6-methoxy-5-((((5-oxopyrrolidin-2-yl)methyl)amino)methyl)pyridin-2-yl)-[1,1′-biphenyl]-3-yl)-4-oxo-4H-pyrido[1,2-a]pyrimidin-3-yl)methyl)azetidine-3-carboxylate]: 3.8 nM.
Then `COc1nc(-c2cccc(-c3cccc(-c4ccn5c(=O)c(CN[C@H]6CCOC[C@@H]6O)cnc5c4)c3Cl)c2Cl)ccc1CNC[C@@H]1CCC(=O)N1` [Example 163], with 0.8 nM.
`COc1nc(-c2cccc(-c3cccc(-c4ccn5c(=O)c(CNC[C@@H]6CCC(=O)N6)c(C)nc5c4)c3Cl)c2Cl)ccc1CNC[C@@H]1CCC(=O)N1` [Example 164, 8-(2,2′-Dichloro-3′-(6-methoxy-5-(((((S)-5-oxopyrrolidin-2-yl)methyl)amino)methyl)pyridin-2-yl)-[1,1′-biphenyl]-3-yl)-2-methyl-3-(((((S)-5-oxopyrrolidin-2-yl)methyl)amino)methyl)-4H-pyrido[1,2-a]pyrimidin-4-one] yielded an IC50 of 1.3 nM.
Next, `COc1nc(-c2cccc(-c3cccc(-c4ccn5c(=O)c(CN6CC[C@H](O)C6)cnc5c4)c3Cl)c2Cl)ccc1CN1CC[C@H](O)C1` [Example 165, 8-(2,2′-Dichloro-3′-(5-(((S)-3-hydroxypyrrolidin-1-yl)methyl)-6-methoxypyridin-2-yl)-[1,1′-biphenyl]-3-yl)-3-(((S)-3-hydroxypyrrolidin-1-yl)methyl)-4H-pyrido[1,2-a]pyrimidin-4-one]: 0.1 nM; `COc1nc(-c2cccc(-c3cccc(-c4ccn5c(=O)c(CN6C[C@H](O)C[C@H]6C(=O)O)cnc5c4)c3Cl)c2Cl)ccc1CNC[C@@H]1CCC(=O)N1` [Example 166, (2S,4R)-1-((8-(2,2′-Dichloro-3′-(6-methoxy-5-(((((S)-5-oxopyrrolidin-2-yl)methyl)amino)methyl)pyridin-2-yl)-[1,1′-biphenyl]-3-yl)-4-oxo-4H-pyrido[1,2-a]pyrimidin-3-yl)methyl)-4-hydroxypyrrolidine-2-carboxylic acid]: 0.1 nM; `COC(=O)c1cnc(-c2cnc3cc(-c4cccc(-c5cccc(-c6ccc(CNC[C@@H]7CCC(=O)N7)c(OC)n6)c5Cl)c4Cl)ccn3c2=O)[nH]1` [Example 167, methyl (S)-2-(8-(2,2′-dichloro-3′-(6-methoxy-5-((((5-oxopyrrolidin-2-yl)methyl)amino)methyl)pyridin-2-yl)-[1,1′-biphenyl]-3-yl)-4-oxo-4H-pyrido[1,2-a]pyrimidin-3-yl)-1H-imidazole-5-carboxylate]: 0.5 nM.
Then `COc1nc(-c2cccc(-c3cccc(-c4ccn5c(=O)c(CN6CCC[C@@]6(C)C(=O)O)cnc5c4)c3Cl)c2Cl)ccc1CNCCO` [Example 168, (S)-1-((8-(2,2′-Dichloro-3′-(5-(((2-hydroxyethyl)amino)methyl)-6-methoxypyridin-2-yl)-[1,1′-biphenyl]-3-yl)-4-oxo-4H-pyrido[1,2-a]pyrimidin-3-yl)methyl)-2-methylpyrrolidine-2-carboxylic acid], with 0.2 nM; and `COc1nc(-c2cccc(-c3cccc(-c4ccn5c(=O)c(CN6CC[C@@H](O)C6)cnc5c4)c3Cl)c2Cl)ccc1CNC[C@@H]1CCC(=O)N1` [Example 169, 8-(2,2′-Dichloro-3′-(6-methoxy-5-(((((S)-5-oxopyrrolidin-2-yl)methyl)amino)methyl)pyridin-2-yl)-[1,1′-biphenyl]-3-yl)-3-(((R)-3-hydroxypyrrolidin-1-yl)methyl)-4H-pyrido[1,2-a]pyrimidin-4-one], with 0.4 nM.
In turn, `COc1nc(-c2cccc(-c3cccc(-c4ccn5c(=O)c(CNC[C@@H]6CCC(=O)N6)cnc5c4)c3Cl)c2Cl)ccc1CN1CC[C@@H](O)C1` [Example 170, 8-(2,2′-Dichloro-3′-(5-(((R)-3-hydroxypyrrolidin-1-yl)methyl)-6-methoxypyridin-2-yl)-[1,1′-biphenyl]-3-yl)-3-(((((S)-5-oxopyrrolidin-2-yl)methyl)amino)methyl)-4H-pyrido[1,2-a]pyrimidin-4-one] registered an IC50 of 0.3 nM.
Molecule `COC(=O)C1CN=C(c2cnc3cc(-c4cccc(-c5cccc(-c6ccc(CNC[C@@H]7CCC(=O)N7)c(OC)n6)c5Cl)c4Cl)ccn3c2=O)N1` (stereo partly drawn) [Example 171, Methyl 2-(8-(2,2′-dichloro-3′-(6-methoxy-5-(((((S)-5-oxopyrrolidin-2-yl)methyl)amino)methyl)pyridin-2-yl)-[1,1′-biphenyl]-3-yl)-4-oxo-4H-pyrido[1,2-a]pyrimidin-3-yl)-4,5-dihydro-1H-imidazole-5-carboxylate] came in with an IC50 of 0.2 nM.
With `COc1nc(-c2cccc(-c3cccc(-c4ccn5c(=O)c(CN6CC[C@H](C(=O)O)C6)cnc5c4)c3Cl)c2Cl)ccc1CNCCO` [Example 172, (S)-1-((8-(2,2′-Dichloro-3′-(5-(((2-hydroxyethyl)amino)methyl)-6-methoxypyridin-2-yl)-[1,1′-biphenyl]-3-yl)-4-oxo-4H-pyrido[1,2-a]pyrimidin-3-yl)methyl)pyrrolidine-3-carboxylic acid], the IC50 is 0.3 nM.
Next, `N#CCCOc1cc(/C=C/c2cccc(-c3cccc(-c4ccn5c(=O)c(CNC[C@@H]6CCC(=O)N6)cnc5c4)c3Cl)c2Cl)c(Cl)cc1CN1CC[C@H](C(=O)O)C1` [Example 173, (S)-1-(5-Chloro-2-(2-cyanoethoxy)-4-((E)-2-(2,2′-dichloro-3′-(4-oxo-3-(((((S)-5-oxopyrrolidin-2-yl)methyl)amino)methyl)-4H-pyrido[1,2-a]pyrimidin-8-yl)-[1,1′-biphenyl]-3-yl)vinyl)benzyl)pyrrolidine-3-carboxylic acid]: 0.4 nM; `COc1nc(-c2cccc(-c3cccc(-c4ccn5c(=O)c(CNC[C@@H]6CCC(=O)N6)cnc5c4)c3Cl)c2Cl)ccc1CN[C@H]1CCOC[C@@H]1O` [Example 174, 8-(2,2′-Dichloro-3′-(5-((((3R,4S)-3-hydroxytetrahydro-2H-pyran-4-yl)amino)methyl)-6-methoxypyridin-2-yl)-[1,1′-biphenyl]-3-yl)-3-(((((S)-5-oxopyrrolidin-2-yl)methyl)amino)methyl)-4H-pyrido[1,2-a]pyrimidin-4-one]: 0.8 nM; `COc1nc(-c2cccc(-c3cccc(-c4ccn5c(=O)c(CNC[C@@H]6CCC(=O)N6)cnc5c4)c3Cl)c2Cl)ccc1CN1CC[C@H](O)C1` [Example 175, 8-(2,2′-Dichloro-3′-(5-(((S)-3-hydroxypyrrolidin-1-yl)methyl)-6-methoxypyridin-2-yl)-[1,1′-biphenyl]-3-yl)-3-(((((S)-5-oxopyrrolidin-2-yl)methyl)amino)methyl)-4H-pyrido[1,2-a]pyrimidin-4-one]: 0.1 nM.
